From ChEMBL document CHEMBL5291721, “A preclinical secondary pharmacology resource illuminates target-adverse drug reaction associations of marketed drugs” (Nat Commun, 2023)

Columns and labels:
[1] = molecular target: Gamma-aminobutyric acid receptor subunit alpha-1/alpha-2/beta-2/gamma-2 (Homo sapiens, UniProt P14867+P18507+P47869+P47870); format: protein-complex assay
[2] = molecular target: T1, Alpha-2C adrenergic receptor (Homo sapiens, UniProt P18825); format: functional
T1 sequence (P18825 whole entry): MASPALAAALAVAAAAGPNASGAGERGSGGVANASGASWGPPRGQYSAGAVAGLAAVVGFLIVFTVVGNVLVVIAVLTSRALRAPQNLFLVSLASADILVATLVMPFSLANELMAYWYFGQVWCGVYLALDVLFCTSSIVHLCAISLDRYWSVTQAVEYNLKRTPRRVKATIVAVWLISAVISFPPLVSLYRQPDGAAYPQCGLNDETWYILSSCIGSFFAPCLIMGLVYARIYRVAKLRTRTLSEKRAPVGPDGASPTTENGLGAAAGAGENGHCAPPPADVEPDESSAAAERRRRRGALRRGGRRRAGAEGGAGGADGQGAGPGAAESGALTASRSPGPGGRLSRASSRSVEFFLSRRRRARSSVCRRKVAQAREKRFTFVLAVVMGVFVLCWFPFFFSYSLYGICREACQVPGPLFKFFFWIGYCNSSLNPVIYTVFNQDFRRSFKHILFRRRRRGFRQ

Androgen receptor = molecular target: T2, Androgen receptor (Homo sapiens, UniProt P10275)
T2 sequence (P10275 whole entry): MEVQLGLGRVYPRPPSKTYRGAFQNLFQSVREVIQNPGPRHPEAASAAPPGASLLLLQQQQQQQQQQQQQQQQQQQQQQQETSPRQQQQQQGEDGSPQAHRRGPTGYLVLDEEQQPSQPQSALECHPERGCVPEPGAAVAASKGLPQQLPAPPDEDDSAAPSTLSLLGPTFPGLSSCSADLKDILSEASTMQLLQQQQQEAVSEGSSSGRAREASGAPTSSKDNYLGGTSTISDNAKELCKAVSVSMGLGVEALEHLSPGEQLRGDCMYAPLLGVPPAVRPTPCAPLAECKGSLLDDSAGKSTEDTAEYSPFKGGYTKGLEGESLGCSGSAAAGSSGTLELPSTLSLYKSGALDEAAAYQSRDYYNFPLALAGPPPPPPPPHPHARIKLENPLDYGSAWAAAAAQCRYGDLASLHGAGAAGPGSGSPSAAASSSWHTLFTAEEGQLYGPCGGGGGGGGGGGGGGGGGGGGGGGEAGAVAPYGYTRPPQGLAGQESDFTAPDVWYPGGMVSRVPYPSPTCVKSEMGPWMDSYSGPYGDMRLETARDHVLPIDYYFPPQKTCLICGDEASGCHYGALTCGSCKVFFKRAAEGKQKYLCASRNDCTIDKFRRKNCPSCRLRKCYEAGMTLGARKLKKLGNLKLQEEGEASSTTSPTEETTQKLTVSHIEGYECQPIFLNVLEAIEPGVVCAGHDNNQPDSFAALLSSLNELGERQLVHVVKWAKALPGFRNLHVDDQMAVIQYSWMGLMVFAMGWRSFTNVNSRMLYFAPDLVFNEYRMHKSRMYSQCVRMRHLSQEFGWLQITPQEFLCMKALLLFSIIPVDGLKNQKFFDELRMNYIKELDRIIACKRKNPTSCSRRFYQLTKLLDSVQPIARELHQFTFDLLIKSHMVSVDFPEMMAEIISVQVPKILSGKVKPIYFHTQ

[3] = molecular target: Vascular endothelial growth factor receptor 2 (Homo sapiens, UniProt P35968); format: functional
Sequence of Vascular endothelial growth factor receptor 2 (P35968 whole entry): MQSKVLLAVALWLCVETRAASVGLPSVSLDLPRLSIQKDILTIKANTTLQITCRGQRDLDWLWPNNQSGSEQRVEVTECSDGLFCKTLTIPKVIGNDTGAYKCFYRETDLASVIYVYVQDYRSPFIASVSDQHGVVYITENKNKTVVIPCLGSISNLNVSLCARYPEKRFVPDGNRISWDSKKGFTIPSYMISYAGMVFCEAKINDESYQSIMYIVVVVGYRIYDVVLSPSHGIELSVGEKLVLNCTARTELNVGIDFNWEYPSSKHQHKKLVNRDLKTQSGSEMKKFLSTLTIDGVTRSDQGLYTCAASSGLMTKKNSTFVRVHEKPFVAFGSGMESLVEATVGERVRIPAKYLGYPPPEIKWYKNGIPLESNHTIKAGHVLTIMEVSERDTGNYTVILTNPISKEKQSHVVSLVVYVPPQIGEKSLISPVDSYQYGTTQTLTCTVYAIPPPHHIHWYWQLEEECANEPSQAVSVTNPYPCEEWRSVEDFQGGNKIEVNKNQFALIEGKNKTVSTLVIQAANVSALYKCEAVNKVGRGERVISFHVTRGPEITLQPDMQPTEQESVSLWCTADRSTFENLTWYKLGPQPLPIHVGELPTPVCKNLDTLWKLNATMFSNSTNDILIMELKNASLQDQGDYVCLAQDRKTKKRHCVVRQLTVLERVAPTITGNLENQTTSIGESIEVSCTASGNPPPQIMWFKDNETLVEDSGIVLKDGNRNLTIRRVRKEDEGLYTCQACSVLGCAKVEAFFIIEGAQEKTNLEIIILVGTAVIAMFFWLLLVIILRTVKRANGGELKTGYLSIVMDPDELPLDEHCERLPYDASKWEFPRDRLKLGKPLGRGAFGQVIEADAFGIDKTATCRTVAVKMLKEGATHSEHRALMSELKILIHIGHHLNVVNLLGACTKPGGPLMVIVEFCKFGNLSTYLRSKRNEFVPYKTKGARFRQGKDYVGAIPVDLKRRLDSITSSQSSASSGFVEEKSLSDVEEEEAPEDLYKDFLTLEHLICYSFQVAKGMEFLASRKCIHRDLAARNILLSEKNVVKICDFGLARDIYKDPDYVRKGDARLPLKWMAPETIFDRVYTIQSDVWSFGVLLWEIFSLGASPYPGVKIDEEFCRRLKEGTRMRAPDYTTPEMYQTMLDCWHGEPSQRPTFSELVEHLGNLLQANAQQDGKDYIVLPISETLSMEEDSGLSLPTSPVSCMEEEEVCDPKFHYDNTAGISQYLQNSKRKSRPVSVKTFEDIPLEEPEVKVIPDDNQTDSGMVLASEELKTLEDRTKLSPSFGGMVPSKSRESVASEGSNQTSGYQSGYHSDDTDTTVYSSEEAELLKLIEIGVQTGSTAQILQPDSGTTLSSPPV

[4] = molecular target: 3',5'-cyclic-AMP phosphodiesterase 4D (Homo sapiens, UniProt Q08499); format: functional
Sequence of 3',5'-cyclic-AMP phosphodiesterase 4D (Q08499 whole entry): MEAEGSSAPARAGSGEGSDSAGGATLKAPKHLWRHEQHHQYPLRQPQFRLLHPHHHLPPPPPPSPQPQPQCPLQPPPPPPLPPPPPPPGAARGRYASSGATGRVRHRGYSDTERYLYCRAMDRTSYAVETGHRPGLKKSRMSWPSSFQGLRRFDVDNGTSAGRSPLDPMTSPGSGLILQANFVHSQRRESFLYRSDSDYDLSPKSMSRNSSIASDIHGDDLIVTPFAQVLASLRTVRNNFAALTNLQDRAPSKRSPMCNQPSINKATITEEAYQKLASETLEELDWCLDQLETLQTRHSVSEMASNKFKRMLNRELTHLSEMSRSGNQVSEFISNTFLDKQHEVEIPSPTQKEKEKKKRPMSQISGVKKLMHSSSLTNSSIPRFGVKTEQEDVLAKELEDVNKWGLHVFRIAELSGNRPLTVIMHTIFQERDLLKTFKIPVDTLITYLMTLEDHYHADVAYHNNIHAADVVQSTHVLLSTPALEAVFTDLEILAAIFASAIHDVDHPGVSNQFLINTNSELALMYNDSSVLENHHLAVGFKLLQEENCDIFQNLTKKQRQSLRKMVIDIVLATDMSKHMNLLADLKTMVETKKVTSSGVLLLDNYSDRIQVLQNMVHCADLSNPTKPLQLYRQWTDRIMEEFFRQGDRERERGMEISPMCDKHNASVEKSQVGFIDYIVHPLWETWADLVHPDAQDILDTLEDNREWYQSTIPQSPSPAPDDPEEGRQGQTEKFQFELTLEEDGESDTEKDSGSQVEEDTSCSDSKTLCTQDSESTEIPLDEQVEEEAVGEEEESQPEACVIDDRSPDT

Adenosine receptor A3 = molecular target: T3, Adenosine receptor A3 (Homo sapiens, UniProt P0DMS8)
T3 sequence (P0DMS8 whole entry): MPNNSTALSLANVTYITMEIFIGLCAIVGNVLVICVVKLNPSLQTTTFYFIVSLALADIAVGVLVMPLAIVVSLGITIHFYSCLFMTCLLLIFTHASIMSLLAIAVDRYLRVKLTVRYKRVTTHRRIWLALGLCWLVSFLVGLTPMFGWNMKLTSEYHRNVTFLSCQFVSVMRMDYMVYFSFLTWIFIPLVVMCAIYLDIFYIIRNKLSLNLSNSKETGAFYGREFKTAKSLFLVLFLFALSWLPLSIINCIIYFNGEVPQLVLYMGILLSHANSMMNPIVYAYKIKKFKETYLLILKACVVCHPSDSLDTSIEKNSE

[5] = molecular target: Sodium-dependent noradrenaline transporter (Homo sapiens, UniProt P23975)
Histamine H1 receptor = Histamine H1 receptor (Homo sapiens, UniProt P35367)
Sequence of Histamine H1 receptor (P35367 whole entry): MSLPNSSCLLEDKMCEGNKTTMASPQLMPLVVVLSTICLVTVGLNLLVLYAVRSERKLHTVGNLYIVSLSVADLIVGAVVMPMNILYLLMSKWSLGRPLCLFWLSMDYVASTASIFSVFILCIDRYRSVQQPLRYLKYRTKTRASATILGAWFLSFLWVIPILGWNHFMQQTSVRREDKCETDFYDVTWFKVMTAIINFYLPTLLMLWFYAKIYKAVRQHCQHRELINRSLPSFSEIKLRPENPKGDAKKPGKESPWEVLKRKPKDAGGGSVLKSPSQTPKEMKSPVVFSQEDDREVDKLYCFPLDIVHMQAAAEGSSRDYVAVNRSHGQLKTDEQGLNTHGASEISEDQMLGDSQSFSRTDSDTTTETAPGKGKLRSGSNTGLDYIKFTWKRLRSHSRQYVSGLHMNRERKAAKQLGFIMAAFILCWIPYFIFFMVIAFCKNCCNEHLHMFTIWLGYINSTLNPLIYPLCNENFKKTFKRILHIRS
Further: assay procedure not described here.

Sequence of Gamma-aminobutyric acid receptor subunit alpha-1/alpha-2/beta-2/gamma-2 (P14867 whole entry): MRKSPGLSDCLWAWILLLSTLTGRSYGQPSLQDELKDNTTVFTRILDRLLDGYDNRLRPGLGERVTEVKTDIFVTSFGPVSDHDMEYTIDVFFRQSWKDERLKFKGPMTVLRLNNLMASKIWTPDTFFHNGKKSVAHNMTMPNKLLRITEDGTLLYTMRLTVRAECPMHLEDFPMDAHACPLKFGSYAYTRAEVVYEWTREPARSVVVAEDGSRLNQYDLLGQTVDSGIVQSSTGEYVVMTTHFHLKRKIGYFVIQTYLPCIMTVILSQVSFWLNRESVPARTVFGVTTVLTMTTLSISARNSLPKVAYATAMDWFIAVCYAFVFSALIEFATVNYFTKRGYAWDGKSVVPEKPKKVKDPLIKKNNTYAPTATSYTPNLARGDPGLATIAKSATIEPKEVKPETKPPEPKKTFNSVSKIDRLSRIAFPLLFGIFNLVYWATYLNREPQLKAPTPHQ
Sequence of Gamma-aminobutyric acid receptor subunit alpha-1/alpha-2/beta-2/gamma-2 (P47870 whole entry): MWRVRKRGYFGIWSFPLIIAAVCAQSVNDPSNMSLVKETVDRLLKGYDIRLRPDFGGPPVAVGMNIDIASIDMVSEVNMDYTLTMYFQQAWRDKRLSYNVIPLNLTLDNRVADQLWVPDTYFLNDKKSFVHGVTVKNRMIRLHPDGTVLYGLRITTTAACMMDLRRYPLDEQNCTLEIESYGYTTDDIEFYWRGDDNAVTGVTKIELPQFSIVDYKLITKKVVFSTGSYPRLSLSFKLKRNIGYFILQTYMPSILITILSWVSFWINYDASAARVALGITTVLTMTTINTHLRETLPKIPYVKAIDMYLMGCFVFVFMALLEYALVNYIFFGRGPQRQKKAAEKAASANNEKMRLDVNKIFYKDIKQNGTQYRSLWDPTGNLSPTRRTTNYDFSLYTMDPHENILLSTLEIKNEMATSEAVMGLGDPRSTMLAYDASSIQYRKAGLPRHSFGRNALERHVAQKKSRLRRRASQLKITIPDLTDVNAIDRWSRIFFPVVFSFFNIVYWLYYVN
Sequence of Gamma-aminobutyric acid receptor subunit alpha-1/alpha-2/beta-2/gamma-2 (P18507 whole entry): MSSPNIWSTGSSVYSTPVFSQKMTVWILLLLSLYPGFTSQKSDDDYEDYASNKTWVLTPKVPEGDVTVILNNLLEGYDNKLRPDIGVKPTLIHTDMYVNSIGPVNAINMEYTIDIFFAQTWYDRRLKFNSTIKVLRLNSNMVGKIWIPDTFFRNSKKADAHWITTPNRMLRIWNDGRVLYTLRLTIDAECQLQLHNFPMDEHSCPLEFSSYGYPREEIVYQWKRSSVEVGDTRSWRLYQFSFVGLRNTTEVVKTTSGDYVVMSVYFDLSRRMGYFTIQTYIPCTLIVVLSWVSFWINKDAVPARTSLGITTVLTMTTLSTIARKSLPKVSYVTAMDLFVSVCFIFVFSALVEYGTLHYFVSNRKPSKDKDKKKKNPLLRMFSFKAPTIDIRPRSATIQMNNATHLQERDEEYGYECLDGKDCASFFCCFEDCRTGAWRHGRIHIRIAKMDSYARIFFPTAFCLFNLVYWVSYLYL
Sequence of Gamma-aminobutyric acid receptor subunit alpha-1/alpha-2/beta-2/gamma-2 (P47869 whole entry): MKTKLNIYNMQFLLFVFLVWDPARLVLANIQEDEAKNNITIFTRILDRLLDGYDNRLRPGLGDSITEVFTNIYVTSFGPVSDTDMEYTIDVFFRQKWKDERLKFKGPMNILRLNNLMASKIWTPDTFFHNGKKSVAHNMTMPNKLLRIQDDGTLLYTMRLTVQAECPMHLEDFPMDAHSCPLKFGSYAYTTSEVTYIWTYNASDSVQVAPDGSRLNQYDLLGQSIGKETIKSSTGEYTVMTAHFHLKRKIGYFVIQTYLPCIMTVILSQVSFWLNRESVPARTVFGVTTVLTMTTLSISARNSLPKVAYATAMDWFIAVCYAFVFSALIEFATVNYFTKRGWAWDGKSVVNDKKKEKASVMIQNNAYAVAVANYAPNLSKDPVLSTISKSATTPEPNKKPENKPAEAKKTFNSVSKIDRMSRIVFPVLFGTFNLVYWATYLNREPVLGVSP

Row | Structure (SMILES) | AC50 [1] [µM] | AC50 [2] [µM] | AC50 (Androgen receptor) [µM] | AC50 [3] [µM] | AC50 [4] [µM] | AC50 (Adenosine receptor A3) [µM] | AC50 [5] [µM] | AC50 (Histamine H1 receptor) [µM]
1 | CS(=O)(=O)Nc1cc2occ(NC=O)c(=O)c2cc1Oc1ccccc1 [IGURATIMOD] | > 30 | > 30 | > 30 | > 10 | 9.8 | > 30 | > 30 | > 30
2 | CCN(CC)CCNc1ccc(C)c2sc3ccccc3c(=O)c12 [LUCANTHONE] | > 30 |  | > 30 | > 30 |  |  |  | 
3 | CC(C(=O)O)c1ccc2c(c1)Cc1cccnc1O2 (stereo unspecified) [PRANOPROFEN] | > 30 |  | > 30 | > 30 |  |  |  | 
4 | CCO[C@@H](Cc1ccc(OCCn2c(C)ccc2-c2ccc(SC)cc2)cc1)C(=O)O [SAROGLITAZAR] | > 3 |  | > 30 | > 30 |  |  |  | 
5 | CN1CCC2=C(C1)c1ccccc1Cc1ccccc12 [SETIPTILINE] | > 30 |  | > 30 | > 30 |  |  |  | 
6 | COc1ccc(CCC(C)NCC(O)c2ccc(O)c([S+](C)[O-])c2)cc1 (stereo unspecified) [SULFINALOL] | > 30 |  | > 30 | > 30 |  |  |  | 
7 | C[C@@H]1O[C@@H](OC[C@H]2O[C@@H](Oc3c(-c4ccc(OCCO)c(OCCO)c4)oc4cc(OCCO)cc(O)c4c3=O)[C@H](O)[C@@H](O)[C@@H]2O)[C@H](O)[C@H](O)[C@H]1O [TROXERUTIN] | > 30 |  | > 30 | > 30 |  |  |  | 
